Source: patent US20210045385A1, “PYRIDAZINONE-SUBSTITUTED KETOXIMES AS HERBICIDES” (FMC Corporation, priority 2018, published 2021)

Legend:
Format in all cases: in vivo
[1] = system: ragweed (common ragweed, Ambrosia elatior); assay: Test A postemergence, visual plant response rating; conditions: for Ragweed plant response rating (0 to 100 scale): 500 g ai/ha, postemergence, 0 is no effect, 100 is complete control; for Ragweed plant response rating: Postemergence, 125 g ai/ha, 0 to 100 scale (0 no effect, 100 complete control)
Source text: (§1) Seeds of plant species selected from barnyardgrass (Echinochloa crus-galli), kochia (Kochia scoparia), ragweed (common ragweed, Ambrosia elatior), Italian ryegrass (Lolium multiflorum), foxtail, giant (giant foxtail, Setaria faberii), foxtail, green (green foxtail, Setaria viridis), and pigweed (Amaranthus retroflexus) were planted into a blend of loam soil and sand and treated preemergence with a directed soil spray using test chemicals formulated in a non-phytotoxic solvent mixture which included a surfactant.
(§2) At the same time, plants selected from these weed species and also wheat (Triticum aestivum), corn (Zea mays), blackgrass (Alopecurus myosuroides), and galium (catchweed bedstraw, Galium aparine) were planted in pots containing the same blend of loam soil and sand and treated with postemergence applications of test chemicals formulated in the same manner. Plants ranged in height from 2 to 10 cm and were in the one- to two-leaf stage for the postemergence treatment. Treated plants and untreated controls were maintained in a greenhouse for approximately 10 days, after which time all treated plants were compared to untreated controls and visually evaluated for injury. Plant response ratings, summarized in Table A, are based on a 0 to 100 scale where 0 is no effect and 100 is complete control. A dash (-) response means no test result.

[2] = system: pigweed (Amaranthus retroflexus); assay: Test A postemergence, visual plant response rating; conditions: for Pigweed plant response rating (0 to 100 scale): 500 g ai/ha, postemergence, 0 is no effect, 100 is complete control; for Pigweed plant response rating: Postemergence, 125 g ai/ha, 0 to 100 scale (0 no effect, 100 complete control)
Source text: as §1, §2

[3] = system: foxtail, giant (giant foxtail, Setaria faberii); assay: Test A postemergence, visual plant response rating; conditions: for Foxtail, Giant plant response rating (0 to 100 scale): 500 g ai/ha, postemergence, 0 is no effect, 100 is complete control; for Foxtail, Giant plant response rating: Postemergence, 125 g ai/ha, 0 to 100 scale (0 no effect, 100 complete control)
Source text: as §1, §2

[4] = system: barnyardgrass (Echinochloa crus-galli); assay: Test A postemergence, visual plant response rating; conditions: for Barnyardgrass plant response rating (0 to 100 scale): 500 g ai/ha, postemergence, 0 is no effect, 100 is complete control; for Barnyardgrass plant response rating: Postemergence, 125 g ai/ha, 0 to 100 scale (0 no effect, 100 complete control)
Source text: as §1, §2

corn (Zea mays) = assay: Test A postemergence, visual plant response rating; conditions: for Corn plant response rating (0 to 100 scale): 500 g ai/ha, postemergence, 0 is no effect, 100 is complete control; for Corn plant response rating: Postemergence, 125 g ai/ha, 0 to 100 scale (0 no effect, 100 complete control)
Source text: as §1, §2

kochia (Kochia scoparia) [5] = assay: Test A postemergence, visual plant response rating; conditions: for Kochia plant response rating (0 to 100 scale): 500 g ai/ha, postemergence, 0 is no effect, 100 is complete control; for Kochia plant response rating: Postemergence, 125 g ai/ha, 0 to 100 scale (0 no effect, 100 complete control)
Source text: as §1, §2

[6] = system: Italian ryegrass (Lolium multiflorum); assay: Test A postemergence, visual plant response rating
Source text: as §1, §2

[7] = system: blackgrass (Alopecurus myosuroides); assay: Test A postemergence, visual plant response rating; conditions: for Blackgrass plant response rating (0 to 100 scale): 500 g ai/ha, postemergence, 0 is no effect, 100 is complete control; for Blackgrass plant response rating: Postemergence, 125 g ai/ha, 0 to 100 scale (0 no effect, 100 complete control)
Source text: as §1, §2

[8] = system: galium (catchweed bedstraw, Galium aparine); assay: Test A postemergence, visual plant response rating; conditions: for Galium plant response rating (0 to 100 scale): 500 g ai/ha, postemergence, 0 is no effect, 100 is complete control; for Galium plant response rating: Postemergence, 125 g ai/ha, 0 to 100 scale (0 no effect, 100 complete control)
Source text: as §1, §2

[9] = system: wheat (Triticum aestivum); assay: Test A postemergence, visual plant response rating; conditions: for Wheat plant response rating: 0 to 100 scale (0 no effect, 100 complete control)
Source text: as §1, §2

rice (Oryza sativa) = assay: Test B flooded paddy test, visual plant response rating; conditions: 250 g ai/ha, Flood, applied to paddy water, 2-leaf stage, evaluated after 13 to 15 days
In short: (§3)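 Greenhouse paddy conditions applied: two-leaf plants, a 3 cm flood above the soil surface maintained throughout, and compound added to the water rather than the foliage. Plants were judged visually against controls at 13 to 15 days.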

[10] = system: sedge, umbrella (small-flower umbrella sedge, Cyperus difformis); assay: as above; conditions: 250 g ai/ha, Flood, applied to paddy water, 2-leaf stage, evaluated after 13 to 15 days
In short: as §3

[11] = system: barnyardgrass (Echinochloa crus-galli); assay: as above; conditions: 250 g ai/ha, Flood, applied to paddy water, 2-leaf stage, evaluated after 13 to 15 days
In short: as §3

[12] = system: ducksalad (Heteranhera limosa); assay: as above; conditions: 250 g ai/ha, Flood, applied to paddy water, 2-leaf stage, evaluated after 13 to 15 days
In short: as §3

[13] = system: ragweed (common ragweed, Ambrosia elatior); assay: Test A preemergence, visual plant response rating; conditions: for Ragweed plant response rating: 125 g ai/ha, preemergence, 0 to 100 scale, 0 no effect, 100 complete control; for Ragweed plant response rating (0 to 100 scale): 500 g ai/ha Preemergence, approx. 10 days
In short: (§4)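 Greenhouse pot test in loam–sand soil mix: compound in a surfactant-containing non-phytotoxic solvent applied preemergence (directed soil spray) or postemergence (one- to two-leaf plants, 2–10 cm). Injury scored visually after ~10 days, 0–100.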

[14] = system: pigweed (Amaranthus retroflexus); assay: Test A preemergence, visual plant response rating; conditions: for Pigweed plant response rating: 125 g ai/ha, preemergence, 0 to 100 scale, 0 no effect, 100 complete control; for Pigweed plant response rating (0 to 100 scale): 500 g ai/ha Preemergence, approx. 10 days
In short: as §4

[15] = system: foxtail, giant (giant foxtail, Setaria faberii); assay: Test A preemergence, visual plant response rating; conditions: for Foxtail, Giant plant response rating: 125 g ai/ha, preemergence, 0 to 100 scale, 0 no effect, 100 complete control; for Foxtail, Giant plant response rating (0 to 100 scale): 500 g ai/ha Preemergence, approx. 10 days
In short: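 Ratings use a 0–100 visual scale (100 = complete control) against untreated controls, scored about 10 days after greenhouse treatment. Test chemicals were formulated in surfactant-containing non-phytotoxic solvent and applied either as soil spray after planting (preemergence) or onto one- to two-leaf, 2–10 cm plants (postemergence).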

[16] = system: barnyardgrass (Echinochloa crus-galli); assay: Test A preemergence, visual plant response rating; conditions: for Barnyardgrass plant response rating: 125 g ai/ha, preemergence, 0 to 100 scale, 0 no effect, 100 complete control; for Barnyardgrass plant response rating (0 to 100 scale): 500 g ai/ha Preemergence, approx. 10 days
In short: as §4

kochia (Kochia scoparia) [17] = assay: Test A preemergence, visual plant response rating; conditions: for Kochia plant response rating: 125 g ai/ha, preemergence, 0 to 100 scale, 0 no effect, 100 complete control; for Kochia plant response rating (0 to 100 scale): 500 g ai/ha Preemergence, approx. 10 days
In short: as §4

[18] = system: Italian ryegrass (Lolium multiflorum); assay: Test A preemergence, visual plant response rating; conditions: for Ryegrass, Italian plant response rating: 125 g ai/ha, preemergence, 0 to 100 scale, 0 no effect, 100 complete control; for Ryegrass, Italian plant response rating (0 to 100 scale): 500 g ai/ha Preemergence, approx. 10 days
In short: as §4

[19] = 500 g ai/ha, postemergence, 0 is no effect, 100 is complete control

Structure (SMILES) | Ragweed plant response rating (0 to 100 scale) [1] | Ragweed plant response rating [1] | Pigweed plant response rating (0 to 100 scale) [2] | Pigweed plant response rating [2] | Foxtail, Giant plant response rating (0 to 100 scale) [3] | Foxtail, Giant plant response rating [3] | Barnyardgrass plant response rating (0 to 100 scale) [4] | Barnyardgrass plant response rating [4] | Corn plant response rating (0 to 100 scale) (corn (Zea mays)) | Corn plant response rating (corn (Zea mays)) | Kochia plant response rating (0 to 100 scale) (kochia (Kochia scoparia) [5]) | Kochia plant response rating (kochia (Kochia scoparia) [5]) | Ryegrass, Italian plant response rating (0 to 100 scale) [6, 19] | Blackgrass plant response rating (0 to 100 scale) [7] | Blackgrass plant response rating [7] | Galium plant response rating (0 to 100 scale) [8] | Galium plant response rating [8] | Plant response rating, Rice (0 to 100 scale, 0 is no effect, 100 is complete control) (rice (Oryza sativa)) | Plant response rating, Sedge, Umbrella (0 to 100 scale, 0 is no effect, 100 is complete control) [10] | Plant response rating, Barnyardgrass (0 to 100 scale, 0 is no effect, 100 is complete control) [11] | further results
CO/N=C(\c1cccc(C)c1F)c1c(O)c(C)nn(C)c1=O [Compound 50] | 80 | 70 | 90 | 90 | 70 | 20 | 40 | 10 | 0 | 0 | 80 | 60 | 80 | 30 | 0 | 70 | 70 | 0 | 0 | 0 | Ryegrass, Italian plant response rating ([6]; Postemergence, 125 g ai/ha, 0 to 100 scale (0 no effect, 100 complete control)): 20; Wheat plant response rating (0 to 100 scale) [9, 19]: 0; Wheat plant response rating ([9]; Postemergence, 125 g ai/ha): 0; Plant response rating, Ducksalad (0 to 100 scale, 0 is no effect, 100 is complete control) [12]: 0; Ragweed plant response rating [13]: 50; Ragweed plant response rating (0 to 100 scale) [13]: 90; Pigweed plant response rating [14]: 30; Pigweed plant response rating (0 to 100 scale) [14]: 90; Foxtail, Giant plant response rating [15]: 0; Foxtail, Giant plant response rating (0 to 100 scale) [15]: 40; Barnyardgrass plant response rating [16]: 10; Barnyardgrass plant response rating (0 to 100 scale) [16]: 60; Kochia plant response rating (kochia (Kochia scoparia) [17]): 10; Kochia plant response rating (0 to 100 scale) (kochia (Kochia scoparia) [17]): 70; Ryegrass, Italian plant response rating [18]: 30; Ryegrass, Italian plant response rating (0 to 100 scale) [18]: 30
CCO/N=C(\c1c(O)c(Cl)nn(C)c1=O)c1cccc2ccccc12 [Compound 146] | 100 | 90 | 90 | 70 | 70 | 60 | 60 | 30 | 20 | 30 | 80 | 60 | 0 | 60 | 30 | 90 | 70 | 0 | 0 | 0 | Ryegrass, Italian plant response rating (0 to 100 scale) ([6]; Postemergence, rate not given, approx. 10 days): 0; Wheat plant response rating ([9]; Postemergence, 500 g ai/ha): 0; Wheat plant response rating (0 to 100 scale) ([9]; Postemergence, approx. 10 days): 0; Plant response rating, Ducksalad (0 to 100 scale, 0 is no effect, 100 is complete control) [12]: 0; Ragweed plant response rating [13]: 90; Ragweed plant response rating (0 to 100 scale) [13]: 100; Pigweed plant response rating [14]: 80; Pigweed plant response rating (0 to 100 scale) [14]: 100; Foxtail, Giant plant response rating [15]: 70; Foxtail, Giant plant response rating (0 to 100 scale) [15]: 80; Barnyardgrass plant response rating [16]: 60; Barnyardgrass plant response rating (0 to 100 scale) [16]: 60; Kochia plant response rating (kochia (Kochia scoparia) [17]): 30; Kochia plant response rating (0 to 100 scale) (kochia (Kochia scoparia) [17]): 100; Ryegrass, Italian plant response rating [18]: 0; Ryegrass, Italian plant response rating (0 to 100 scale) [18]: 0
